Reference: ChEMBL document CHEMBL5223118, “Magnet for the Needle in Haystack: "Crystal Structure First" Fragment Hits Unlock Active Chemical Matter Using Targeted Exploration of Vast Chemical Spaces” (J Med Chem, 2022)

These compounds were tested against cAMP-dependent protein kinase (PKA) (Homo sapiens, UniProt P22694+P17612+P22612) (assay: Inhibition of PKA (unknown origin)).
Type: protein assay
`Cc1cc(C(=O)Nc2ccncc2)c(C)o1` gave a Ki of 20000 µM.
`N#Cc1c(N2CCCC2)n[nH]c1N` showed a Ki of 5000 µM.
`N#Cc1c(N)ccc(/C=C2/CCCNC2)c1Cl` was tested, and the Ki was 85 µM.
`COC1(CNC(=O)N2CCN(c3ccncc3C)CC2)CCCS(=O)(=O)C1` (stereo unspecified) showed a Ki of 354.3 µM.
Compound `N[C@H]1CCN(Cc2cccc(-c3ccc4c(O)nccc4c3)c2)C1` has a Ki of 0.74 µM.
With `N#Cc1c(N)ccnc1C=C1CCNCC1` the Ki was 6379 µM.
`N#Cc1cc(-c2cccc(C3CNCCO3)c2)ccc1N` (stereo unspecified) showed a Ki of 2101 µM.
`NCCC1CN(C(=O)c2ccc(C(N)=O)cc2)c2ccccc21` (stereo unspecified) was tested, and the Ki was 5000 µM.
`N#Cc1cc(-c2cccc(C3COCCN3)c2)ccc1N` (stereo unspecified) was tested, and the Ki was 955 µM.
Compound `COCC1CN=C(N2CCN(c3ccncc3Cl)CC2)N1.I` (stereo unspecified) has a Ki of 139.3 µM.
In the case of `CC1(CS(=O)(=O)N2CCc3c(sc(N)c3C#N)C2)CC1(F)F` (stereo unspecified), the Ki is reported as 4743 µM.
For `N#Cc1cc(-c2cccc(C3(CN)CCOCC3)c2)ccc1N`, the Ki was 390.2 µM.
`COc1cc(NCCNc2ccnc(N)c2C#N)cc(OC)c1` was tested, and the Ki was 588 µM.
Work on `CN(C)Cc1ccc(F)c(-c2ccc3c(C#N)c(N)[nH]c3c2)c1` yielded a Ki of 174.4 µM.
For `N[C@@H]1CCN(Cc2cccc(-c3ccc4c(O)nccc4c3)c2)C1`, the Ki was 3 µM.
Compound `O=c1[nH]ccc2cc(-c3cccc(Cn4cccn4)c3)ccc12` has a Ki of 154.7 µM.
Work on `CCn1cc(-c2csc3c(=O)[nH]ccc23)cn1` yielded a Ki of 1423 µM.
`NC1C=C(C(F)(F)F)C=NC1=O` (stereo unspecified) gave a Ki of 10000 µM.
Compound `COCC1CCC(NC(=O)c2ccc3c(c2)CCNC3=O)CC1` (stereo unspecified) has a Ki of 6219 µM.
Work on `N#Cc1cc(-c2cccc(CC(N)CC3CC3)c2)ccc1N` (stereo unspecified) yielded a Ki of 540 µM.
`NC1CCN(Cc2cccc(-c3ccc4c(O)nccc4c3)c2)C1` (racemic) gave a Ki of 0.744 µM.
